Laboratory results: patent publication US20260327221A1, “INHIBITORS OF CYCLIC GMP-AMP SYNTHASE AND USES THEREOF” (Ventus Therapeutics U.S., Inc., priority 2023, published 2026)

Target: hcGAS (Homo sapiens, UniProt Q8N884)
Test: hcGAS LCMS assay (direct measurement of cGAMP production by LC/MS)
Format: biochemical
Settings: 4 h incubation with enzyme and substrates; cGAMP production by LC/MS; class symbols; read-out: hcGAS LCMS IC50
Method: cGAS catalyzes the cyclization of ATP and GTP to produce cGAMP, which is the activating ligand of STING. Human cGAS (hcGAS) inhibition can thus be quantified by measuring how much cGAMP is formed either indirectly, by monitoring ATP-depletion as in the hcGAS Kinase-Glo assay (as described below), or directly, such as using the hcGAS LCMS assay (as described below).
2. hGAS LCMS Assay Conditions
Compounds were tested for their hcGAS inhibition activity using direct measurement of cGAMP production by LC/MS. Briefly, compounds were incubated with enzyme and substrates for 4 hours (see Table C), before the reaction was stopped with 3 volumes of 70/30 Acetonitrile/H2O mix containing 0.15 uM cGAMP-^13C10^15N5 as internal standard and mixed for 5 mmn. After centrifugation (3700 rpm, […], […]), 100 uL of each reaction was collected and mixed to equal volume of acetonitrile (MeCN). Samples were then analyzed on Qexactive (Column: XBridge BEH Amide Column, 130 Å, 3.5 μm, 3 mm×50 mm. Mobile phase A: 10 mM Ammonium acetate in 95/5 H2O/MeCN (0.5% DMSO), Mobile phase B: MeCN (0.5% DMSO).
The results of the assay, expressed as IC50 values, are reported in Table D with the following designations: A represents an IC50 value <0.005 μM (with A1 representing an IC50 value <0.0005 μM, A2 representing an IC50 value ≥0.0005 μM and <0.001 μM, and A3 representing an IC50 value ≥0.001 μM and <0.005 μM); B represents an IC50 value ≥0.005 μM and <0.02 μM; C represents an IC50 value ≥0.02 μM and <0.06 μM; and D represents an IC50 value ≥0.06 μM.

Chain of hcGAS (Q8N884 whole entry): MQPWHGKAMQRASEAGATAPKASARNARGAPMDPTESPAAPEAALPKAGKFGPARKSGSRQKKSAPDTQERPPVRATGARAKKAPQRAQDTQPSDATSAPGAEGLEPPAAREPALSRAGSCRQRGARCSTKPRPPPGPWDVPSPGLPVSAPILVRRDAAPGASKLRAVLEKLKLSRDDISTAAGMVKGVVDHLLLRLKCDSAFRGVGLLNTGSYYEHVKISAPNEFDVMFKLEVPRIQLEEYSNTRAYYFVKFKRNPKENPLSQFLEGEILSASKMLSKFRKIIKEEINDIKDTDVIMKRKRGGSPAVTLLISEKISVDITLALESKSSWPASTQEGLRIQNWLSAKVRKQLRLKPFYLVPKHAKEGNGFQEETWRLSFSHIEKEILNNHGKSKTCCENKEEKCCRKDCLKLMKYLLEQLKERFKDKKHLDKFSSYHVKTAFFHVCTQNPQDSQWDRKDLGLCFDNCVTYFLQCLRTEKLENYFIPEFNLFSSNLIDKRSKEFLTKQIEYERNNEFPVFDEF

SMILES	IC50 [nM]
COCCOc1c(-c2ncccc2C#N)cc(C(=O)Nc2nnc(-n3nccc3C)s2)oc1=O [Compound 7, 4-(3-cyanopyridin-2-yl)-3-(2-methoxyethoxy)-N-(5-(5-methyl-1H-pyrazol-1-yl)-1,3,4-thiadiazol-2-yl)-2-oxo-2H-pyran-6-carboxamide]	1 to 5
COCCOc1c(-c2c(C#N)cccc2OC)cc(C(=O)Nc2nnc(-n3nccc3N)s2)oc1=O [Compound 8, N-(5-(5-amino-1H-pyrazol-1-yl)-1,3,4-thiadiazol-2-yl)-4-(2-cyano-6-methoxyphenyl)-3-(2-methoxyethoxy)-2-oxo-2H-pyran-6-carboxamide]	0.5 to 1
COCCOc1c(-c2ncccc2C#N)cc(C(=O)Nc2nnc(-n3nccc3N)s2)oc1=O [Compound 9, N-(5-(5-amino-1H-pyrazol-1-yl)-1,3,4-thiadiazol-2-yl)-4-(3-cyanopyridin-2-yl)-3-(2-methoxyethoxy)-2-oxo-2H-pyran-6-carboxamide]	0.5 to 1
COCCOc1c(-c2ncccc2OC)cc(C(=O)Nc2nnc(-n3nccc3N)s2)oc1=O [Compound 10, N-(5-(5-amino-1H-pyrazol-1-yl)-1,3,4-thiadiazol-2-yl)-3-(2-methoxyethoxy)-4-(3-methoxypyridin-2-yl)-2-oxo-2H-pyran-6-carboxamide]	1 to 5
COCCOc1c(-c2c(C)cccc2OC)cc(C(=O)Nc2nnc(-n3nccc3N)s2)oc1=O [Compound 11, N-(5-(5-amino-1H-pyrazol-1-yl)-1,3,4-thiadiazol-2-yl)-4-(2-methoxy-6-methylphenyl)-3-(2-methoxyethoxy)-2-oxo-2H-pyran-6-carboxamide]	0.5 to 1
COCCOc1c(-c2c(C#N)cccc2C#N)cc(C(=O)Nc2nnc(-n3nccc3N)s2)oc1=O [Compound 12, N-(5-(5-amino-1H-pyrazol-1-yl)-1,3,4-thiadiazol-2-yl)-4-(2,6-dicyanophenyl)-3-(2-methoxyethoxy)-2-oxo-2H-pyran-6-carboxamide]	0.5 to 1
COCCOc1c(-c2c(F)cccc2OC)cc(C(=O)Nc2nnc(-n3nccc3N)s2)oc1=O [Compound 13, N-(5-(5-amino-1H-pyrazol-1-yl)-1,3,4-thiadiazol-2-yl)-4-(2-fluoro-6-methoxyphenyl)-3-(2-methoxyethoxy)-2-oxo-2H-pyran-6-carboxamide]	0.5 to 1
COc1c(-c2c(C#N)cnn2C)cc(C(=O)Nc2nnc(-n3nccc3C)s2)oc1=O [Compound 14, 4-(4-cyano-1-methyl-1H-pyrazol-5-yl)-3-methoxy-N-(5-(5-methyl-1H-pyrazol-1-yl)-1,3,4-thiadiazol-2-yl)-2-oxo-2H-pyran-6-carboxamide]	20 to 60
COc1cccc(OC)c1-c1cc(C(=O)Nc2nnc(-n3nccc3N)s2)oc(=O)c1OCCO [Compound 17, N-(5-(5-amino-1H-pyrazol-1-yl)-1,3,4-thiadiazol-2-yl)-4-(2,6-dimethoxyphenyl)-3-(2-hydroxyethoxy)-2-oxo-2H-pyran-6-carboxamide]	< 0.5
COCCOc1c(-c2ncccc2OC)cc(C(=O)Nc2nnc(-c3c(F)ccn3C)s2)oc1=O [Compound 18, N-(5-(3-fluoro-1-methyl-1H-pyrrol-2-yl)-1,3,4-thiadiazol-2-yl)-3-(2-methoxyethoxy)-4-(3-methoxypyridin-2-yl)-2-oxo-2H-pyran-6-carboxamide]	1 to 5
COCCOc1c(-c2c(OC)ccnc2OC)cc(C(=O)Nc2nnc(-n3nccc3N)s2)oc1=O [Compound 19, N-(5-(5-amino-1H-pyrazol-1-yl)-1,3,4-thiadiazol-2-yl)-4-(2,4-dimethoxypyridin-3-yl)-3-(2-methoxyethoxy)-2-oxo-2H-pyran-6-carboxamide]	1 to 5
COCC(COC)Oc1c(-c2c(OC)cccc2OC)cc(C(=O)Nc2nnc(-n3nccc3N)s2)oc1=O [Compound 20, N-(5-(5-amino-1H-pyrazol-1-yl)-1,3,4-thiadiazol-2-yl)-4-(2,6-dimethoxyphenyl)-3-((1,3-dimethoxypropan-2-yl)oxy)-2-oxo-2H-pyran-6-carboxamide]	1 to 5
COCCCOc1c(-c2ncccc2OC)cc(C(=O)Nc2nnc(-n3nccc3N)s2)oc1=O [Compound 21, N-(5-(5-amino-1H-pyrazol-1-yl)-1,3,4-thiadiazol-2-yl)-3-(3-methoxypropoxy)-4-(3-methoxypyridin-2-yl)-2-oxo-2H-pyran-6-carboxamide]	1 to 5

More lines, now with the values ahead:

IC50 [nM]	SMILES
1 to 5	COc1cccc(OC)c1-c1cc(C(=O)Nc2nnc(-n3nccc3N)s2)oc(=O)c1OCCN1CCOCC1 [Compound 22, N-(5-(5-amino-1H-pyrazol-1-yl)-1,3,4-thiadiazol-2-yl)-4-(2,6-dimethoxyphenyl)-3-(2-morpholinoethoxy)-2-oxo-2H-pyran-6-carboxamide]
0.5 to 1	COCCOc1c(-c2c(C#N)cccc2OC)cc(C(=O)Nc2nnc(-n3nccc3C(F)F)s2)oc1=O [Compound 23, 4-(2-cyano-6-methoxyphenyl)-N-(5-(5-(difluoromethyl)-1H-pyrazol-1-yl)-1,3,4-thiadiazol-2-yl)-3-(2-methoxyethoxy)-2-oxo-2H-pyran-6-carboxamide]
< 0.5	COc1cccc(C#N)c1-c1cc(C(=O)Nc2nnc(-n3nccc3Cl)s2)oc(=O)c1OCCO [Compound 26, N-(5-(5-chloro-1H-pyrazol-1-yl)-1,3,4-thiadiazol-2-yl)-4-(2-cyano-6-methoxyphenyl)-3-(2-hydroxyethoxy)-2-oxo-2H-pyran-6-carboxamide]
1 to 5	COCCOc1cccc(OC)c1-c1cc(C(=O)Nc2nnc(-n3nccc3N)s2)oc(=O)c1OCCOC [Compound 27, N-(5-(5-amino-1H-pyrazol-1-yl)-1,3,4-thiadiazol-2-yl)-4-(2-methoxy-6-(2-methoxyethoxy)phenyl)-3-(2-methoxyethoxy)-2-oxo-2H-pyran-6-carboxamide]
1 to 5	COCCOc1c(-c2c(OC)cncc2OC)cc(C(=O)Nc2nnc(-n3nccc3N)s2)oc1=O [Compound 28, N-(5-(5-amino-1H-pyrazol-1-yl)-1,3,4-thiadiazol-2-yl)-4-(3,5-dimethoxypyridin-4-yl)-3-(2-methoxyethoxy)-2-oxo-2H-pyran-6-carboxamide]
1 to 5	COCC(C)(C)COc1c(-c2ncccc2OC)cc(C(=O)Nc2nnc(-n3nccc3N)s2)oc1=O [Compound 29, N-(5-(5-amino-1H-pyrazol-1-yl)-1,3,4-thiadiazol-2-yl)-3-(3-methoxy-2,2-dimethylpropoxy)-4-(3-methoxypyridin-2-yl)-2-oxo-2H-pyran-6-carboxamide]
0.5 to 1	COCCOCCOc1c(-c2c(OC)cccc2OC)cc(C(=O)Nc2nnc(-n3nccc3N)s2)oc1=O [Compound 30, N-(5-(5-amino-1H-pyrazol-1-yl)-1,3,4-thiadiazol-2-yl)-4-(2,6-dimethoxyphenyl)-3-(2-(2-methoxyethoxy)ethoxy)-2-oxo-2H-pyran-6-carboxamide]
5 to 20	COc1c(-c2nn(C)cc2C#N)cc(C(=O)Nc2nnc(-n3nccc3C)s2)oc1=O [Compound 31, 4-(4-cyano-1-methyl-1H-pyrazol-3-yl)-3-methoxy-N-(5-(5-methyl-1H-pyrazol-1-yl)-1,3,4-thiadiazol-2-yl)-2-oxo-2H-pyran-6-carboxamide]
1 to 5	COCCOc1c(-c2c(CC#N)cccc2OC)cc(C(=O)Nc2nnc(-n3nccc3N)s2)oc1=O [Compound 32, N-(5-(5-amino-1H-pyrazol-1-yl)-1,3,4-thiadiazol-2-yl)-4-(2-(cyanomethyl)-6-methoxyphenyl)-3-(2-methoxyethoxy)-2-oxo-2H-pyran-6-carboxamide]
1 to 5	COc1cccnc1-c1cc(C(=O)Nc2nnc(-n3nccc3N)s2)oc(=O)c1OCC(C)(C)CO [Compound 33, N-(5-(5-amino-1H-pyrazol-1-yl)-1,3,4-thiadiazol-2-yl)-3-(3-hydroxy-2,2-dimethylpropoxy)-4-(3-methoxypyridin-2-yl)-2-oxo-2H-pyran-6-carboxamide]
0.5 to 1	COc1cccc(OC)c1-c1cc(C(=O)Nc2nnc(-n3nccc3N)s2)oc(=O)c1OCC(C)(C)CO [Compound 36, N-(5-(5-amino-1H-pyrazol-1-yl)-1,3,4-thiadiazol-2-yl)-4-(2,6-dimethoxyphenyl)-3-(3-hydroxy-2,2-dimethylpropoxy)-2-oxo-2H-pyran-6-carboxamide]
1 to 5	COCCOc1c(-c2c(C#N)cccc2COC)cc(C(=O)Nc2nnc(-n3nccc3N)s2)oc1=O [Compound 39, N-(5-(5-amino-1H-pyrazol-1-yl)-1,3,4-thiadiazol-2-yl)-4-(2-cyano-6-(methoxymethyl)phenyl)-3-(2-methoxyethoxy)-2-oxo-2H-pyran-6-carboxamide]
0.5 to 1	COc1cccc(OC)c1-c1cc(C(=O)Nc2nnc(-n3nccc3N)s2)oc(=O)c1OCCCO [Compound 40, N-(5-(5-amino-1H-pyrazol-1-yl)-1,3,4-thiadiazol-2-yl)-4-(2,6-dimethoxyphenyl)-3-(3-hydroxypropoxy)-2-oxo-2H-pyran-6-carboxamide]
